Here are results for one compound from US12377082B2, “Nicorandil derivatives” (priority 2019, dated 2025).

Data set [1] is described as follows: Conversion of Compound A to nicorandil in rat plasma (FIG. 2). Format: in vitro ADME. The following applies: various time points.
The nature of data set [2]: Pharmacokinetics (PK) in rat, oral dosing, plasma levels of parent drug nicorandil. In kind it is in vivo, SD rats. How it is done: Pharmacokinetics (PK) Protocol: Rat
The dosing vehicle used in this study was PEG400. 1, 3, 10 mg/kg oral dosing was done in overnight fasted SD rats and the parent drug generated was monitored. Also presence of modified drug was checked. After oral (PO) dosing blood was collected by serial bleeding at 8 different time points in heparinised tubes. […] Supernatant was kept for analysis. […] Quantitative analysis was done by liquid chromatography tandem mass spectrometer (API3000 LC-MS/MS).

Data set [3] can be described thus: Pharmacokinetics (PK) in dog, oral dosing. In kind it is in vivo, Beagle dog. As to the method:
Pharmacokinetics (PK) Protocol: Dog
0.5 ml blood was collected at each time point from the femoral vein via direct stick at defined time points. in tubes containing anticoagulant. […] Supernatant was kept for analysis. […] Quantitative analysis was done by liquid chromatography tandem mass spectrometer (API3000 LC-MS/MS).

As to `C[C@H](NC(=O)OC[n+]1cccc(C(=O)NCCO[N+](=O)[O-])c1)C1CCCCC1` [Compound 8, (S)-1-(((1-cyclohexylethylcarbamoyl)oxy)methyl)-3-((2-(nitroxy)ethyl)carbamoyl)pyridine-1-ium iodide], the conversion to nicorandil entry in data set [1] was “Complete conversion to nicorandil”. Moreover, the “dose linearity of plasma exposure” value in data set [2] (rat, 1, 3, 10 mg/kg oral) is on record as “displayed dose linearity”. Also, in data set [2] (rat, oral), the “modified drug detected in plasma” value is given as “no modified drug was detected” and the “plasma exposure (in words)” value was “excellent plasma exposure”. In addition, the “plasma exposure compared (AUC and Cmax)” value in data set [3] (3 mg/kg oral) is on record as “significantly higher”. Also, in data set [3] (oral), the “modified drug detected in plasma” value is “no modified drug was detected” and the “plasma exposure (in words)” value is “excellent plasma exposure”.
